Measured values from US9708325B2, “Sulfonimidoylpurinone compounds and derivatives for the treatment and prophylaxis of virus infection” (Hoffmann-La Roche Inc., priority 2015, dated 2017).
In brackets after ≈: the same amount, converted by molar mass. Like-named read-outs stand apart in the source and are kept apart here.

Columns and labels:
[1] = Metabolic stability in human liver microsomes; conditions: 1 μM test compound, 0.5 mg/mL microsomal protein; 6.15 mL/min/kg is the limitation of assay sensitivity
Protocol: The human microsomal stability assay is used for early assessment of metabolic stability of a test compound in human liver microsomes.
Human liver microsomes (Cat. NO.: 452117, Corning, USA; Cat. NO.: H2610, Xenotech, USA) were preincubated with test compound for 10 minutes at 37° C. in 100 mM potassium phosphate buffer, pH 7.4. The reactions were initiated by adding NADPH regenerating system. The final incubation mixtures contained 1 μM test compound, 0.5 mg/mL liver microsomal protein, 1 mM MgCL2, 1 mM NADP, 1 unit/mL isocitric dehydrogenase and 6 mM isocitric acid in 100 mM potassium phosphate buffer, pH 7.4. After incubation times of 0, 3, 6, 9, 15 and 30 minutes at 37° C., 300 μL of cold ACN (including internal standard) was added to 100 μL incubation mixture to terminate the reaction. Following precipitation and centrifugation, the amount of compound remaining in the samples were determined by LC-MS/MS. Controls of no NADPH regenerating system at zero and 30 minutes were also prepared and analyzed.

[2] = tested on: Salmonella typhimurium tester strains (TA1535, TA97, TA98, TA100, and TA102); assay: Ames microsuspension assay; format: cell-based; conditions: five strains, absence and presence of S9
Protocol: The Ames microsuspension assay examines if a compound causes DNA mutations. The method was based on a modified pre-incubation version described by Kado et al (see references: B. N. Ames, J. McCann, E. Yamasaki, Mutation Res. 1975, 31, 347-364 N.Y. Kado, D. Langley, and E. Eisenstadt, Mutation Res. 1983, 121, 25-32). Five Salmonella typhimurium tester strains (TA1535, TA97, TA98, TA100, and TA102) were treated with the test compound in absence and in presence of an exogenous metabolic activation system (S9). The bacteria were pre-incubated for 1 h, the pre-incubation volume is 210 μL (100 μL of overnight culture, 100 μL of S9 mix (10% S9) or 100 μL phosphate buffer, and 10 μL test compound solution). The overnight cultures were resuspended for the test in cold phosphate buffer. The S9 mix contains potassium chloride, magnesium chloride, sodium phosphate buffered saline, NADP^+ and glucose-6-phosphate. The test tubes are incubated and shaken for 60 minutes at 37° C. 2.2 mL soft agar supplemented with L-histidine and biotin was added afterwards and the content of the tubes were mixed and poured on Vogel-Bonner minimal agar plates.
Three replicate plates for the test compound and negative control or two replicate plates for the positive controls were incubated at 37° C., upside down, for 2 days. Colonies were counted electronically using an automatic image analysis system after having inspected the background lawn for signs of toxicity.
S9 is an in vitro metabolic system which is obtained from liver homogenates by centrifuging them at 9000 g for 20 minutes. It contains CYP450 isoforms, phase-II metabolic enzymes, etc. In the Ames microsuspension assay test, S9 is used to assess mutagenicity of compounds, some of which require metabolic activation to become mutagenic.
Criteria of the Ames microsuspension assay: a positive result is defined as a reproducible, dose-related increase in the number of revertant colonies in at least one of the strains. For TA1535 and TA98, the positive threshold is a 2-fold increase over control. For TA97, TA100 and TA102, the threshold is a 1.5-fold increase.

LYSA solubility = format: physicochemical; conditions: for solubility thermodynamic: 0.05 M phosphate buffer, pH 6.5, aqueous buffer, thermodynamic from solid; for LYSA: 0.05 M phosphate buffer (pH 6.5)
Protocol: LYSA solubility assay is used to determine the aqueous solubility of a compound. Samples were prepared in duplicate from 10 mM DMSO stock solution. […] After one night, the solutions were filtered using a microtiter filter plate. Then the filtrate and its 1/10 dilution were analyzed by HPLC-UV.

hERG channel = hERG channel (Homo sapiens (Human), UniProt Q12809); assay: hERG channel inhibition assay (patch-clamp, CHOhERG cells); format: cell-based
Chain of hERG channel (Q12809 whole entry): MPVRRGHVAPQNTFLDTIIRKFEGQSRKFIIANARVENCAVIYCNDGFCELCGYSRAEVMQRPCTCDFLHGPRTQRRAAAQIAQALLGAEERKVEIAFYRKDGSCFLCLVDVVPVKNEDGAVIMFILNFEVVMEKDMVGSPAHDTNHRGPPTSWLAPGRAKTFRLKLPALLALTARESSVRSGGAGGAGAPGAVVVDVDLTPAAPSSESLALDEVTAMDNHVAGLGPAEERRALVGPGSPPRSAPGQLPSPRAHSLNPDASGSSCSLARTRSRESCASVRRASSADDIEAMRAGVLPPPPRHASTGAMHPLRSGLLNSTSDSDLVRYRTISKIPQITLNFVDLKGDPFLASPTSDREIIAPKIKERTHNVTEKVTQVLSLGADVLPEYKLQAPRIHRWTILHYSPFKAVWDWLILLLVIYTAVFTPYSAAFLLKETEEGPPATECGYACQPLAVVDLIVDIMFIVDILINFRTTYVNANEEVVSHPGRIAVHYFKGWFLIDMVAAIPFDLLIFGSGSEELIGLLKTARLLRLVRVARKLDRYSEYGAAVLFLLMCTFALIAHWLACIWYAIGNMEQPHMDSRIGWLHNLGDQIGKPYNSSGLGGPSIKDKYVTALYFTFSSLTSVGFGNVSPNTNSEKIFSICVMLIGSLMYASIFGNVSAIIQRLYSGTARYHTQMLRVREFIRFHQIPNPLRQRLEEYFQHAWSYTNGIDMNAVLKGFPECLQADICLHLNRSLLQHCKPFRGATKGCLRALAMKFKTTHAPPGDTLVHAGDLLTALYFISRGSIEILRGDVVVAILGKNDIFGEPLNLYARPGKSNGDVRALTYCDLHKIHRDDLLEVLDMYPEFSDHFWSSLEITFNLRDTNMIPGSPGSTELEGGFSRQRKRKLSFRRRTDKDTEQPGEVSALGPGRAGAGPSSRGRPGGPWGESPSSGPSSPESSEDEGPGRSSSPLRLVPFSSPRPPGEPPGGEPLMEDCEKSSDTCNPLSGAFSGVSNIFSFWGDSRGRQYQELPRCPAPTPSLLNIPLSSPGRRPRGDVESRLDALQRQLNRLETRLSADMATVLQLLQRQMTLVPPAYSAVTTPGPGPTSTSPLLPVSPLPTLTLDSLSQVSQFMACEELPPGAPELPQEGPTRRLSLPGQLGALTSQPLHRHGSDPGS
Protocol: The hERG K^+ channels were cloned in humans and stably expressed in a CHO (Chinese hamster ovary) cell line. CHOhERG cells were used for patch-clamp (voltage-clamp, whole-cell) experiments. Cells were stimulated by a voltage pattern to activate hERG channels and conduct IKhERG currents (rapid delayed outward rectifier potassium current of the hERG channel). […] Thereafter, the test compound was added to the preparation at increasing concentrations. For each concentration, an attempt was made to reach a steady-state effect, usually, this was achieved within 3-10 min at which time the next highest concentration was applied. The amplitude and kinetics of IKhERG are recorded in each concentration of the drug which were compared to the control values (taken as 100%). (references: Redfern W S, Carlsson L, Davis A S, Lynch W G, MacKenzie I, Palethorpe S, Siegl P K, Strang I, Sullivan A T, Wallis R, Camm A J, Hammond T G. 2003; Relationships between preclinical cardiac electrophysiology, clinical QT interval prolongation and torsade de pointes for a broad range of drugs: evidence for a provisional safety margin in drug development. Cardiovasc. Res. 58:32-45, Sanguinetti M C, Tristani-Firouzi M. 2006; hERG potassium channels and cardiac arrhythmia. Nature 440:463-469, Webster R, Leishman D, Walker D. 2002; Towards a drug concentration effect relationship for QT prolongation and torsades de pointes. Curr. Opin. Drug Discov. Devel. 5:116-26).

human TLR8 = human TLR8 (Homo sapiens (Human), UniProt Q9NR97); assay: HEK-Blue-hTLR8 cells assay and selectivity index; format: cell-based; conditions: for Selective index: EC50(TLR8) value/EC50(TLR7) value
Chain of human TLR8 (Q9NR97 27-1041): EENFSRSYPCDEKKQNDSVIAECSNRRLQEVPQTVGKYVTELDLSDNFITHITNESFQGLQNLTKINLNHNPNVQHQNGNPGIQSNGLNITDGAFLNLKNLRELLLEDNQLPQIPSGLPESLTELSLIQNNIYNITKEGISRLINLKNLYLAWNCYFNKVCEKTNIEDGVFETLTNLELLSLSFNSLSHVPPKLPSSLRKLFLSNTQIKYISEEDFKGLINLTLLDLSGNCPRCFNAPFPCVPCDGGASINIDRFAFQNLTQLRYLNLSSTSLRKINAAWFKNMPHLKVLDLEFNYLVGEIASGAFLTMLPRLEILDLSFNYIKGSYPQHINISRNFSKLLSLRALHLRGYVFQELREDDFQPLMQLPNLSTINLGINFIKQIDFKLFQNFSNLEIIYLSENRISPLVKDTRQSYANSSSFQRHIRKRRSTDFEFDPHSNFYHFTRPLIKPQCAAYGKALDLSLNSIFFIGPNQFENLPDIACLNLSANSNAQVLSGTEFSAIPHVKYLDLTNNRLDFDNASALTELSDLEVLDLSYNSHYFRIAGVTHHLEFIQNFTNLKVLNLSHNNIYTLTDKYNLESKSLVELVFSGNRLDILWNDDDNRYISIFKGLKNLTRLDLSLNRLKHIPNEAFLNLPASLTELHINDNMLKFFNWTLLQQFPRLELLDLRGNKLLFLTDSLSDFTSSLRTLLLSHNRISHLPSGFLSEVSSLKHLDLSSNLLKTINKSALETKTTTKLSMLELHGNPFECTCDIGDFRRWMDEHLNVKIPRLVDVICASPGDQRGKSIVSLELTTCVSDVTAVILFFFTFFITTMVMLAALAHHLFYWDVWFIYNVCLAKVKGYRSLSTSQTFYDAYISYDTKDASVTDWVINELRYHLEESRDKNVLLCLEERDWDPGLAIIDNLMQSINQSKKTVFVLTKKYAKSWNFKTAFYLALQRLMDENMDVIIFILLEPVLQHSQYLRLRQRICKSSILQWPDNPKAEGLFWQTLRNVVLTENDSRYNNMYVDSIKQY
Protocol: (§1) A stable HEK-Blue-hTLR8 cell line was purchased from InvivoGen (Cat.#: HEK-Blue-htlr8, San Diego, Calif., USA). These cells were designed for studying the stimulation of human TLR8 by monitoring the activation of NF-κB. […] Therefore the reporter expression was regulated by the NF-κB promoter upon stimulation of human TLR8 for 20 hrs. The cell culture supernatant SEAP reporter activity was determined using QUANTI-Blue™ kit (Cat.#: rep-qb1, Invivogen, San Diego, Ca, USA) at a wavelength of 640 nm, a detection medium that turns purple or blue in the presence of alkaline phosphatase.
(§2) HEK-Blue-hTLR8 cells were incubated at a density of 250,000˜450,000 cells/mL in a volume of 180 μL in a 96-well plate in Dulbecco's Modified Eagle's medium (DMEM) containing 4.5 g/L glucose, 50 U/mL penicillin, […], […], 2 mM L-glutamine, 10% (V/V) heat-inactivated fetal bovine serum for 24 hrs. Then the HEK-Blue-hTLR8 cells were incubated with addition of 20 μL test compound in a serial dilution in the presence of final DMSO at 1% and perform incubation under 37° C. in a CO2 incubator for 20 hrs. Then 20 μL of the supernatant from each well was incubated with 180 μL Quanti-blue substrate solution at 37° C. for 2 hours and the absorbance was read at 620˜655 nm using a spectrophotometer. The signalling pathway that TLR8 activation leads to downstream NF-κB activation has been widely accepted, and therefore similar reporter assay was also widely used for evaluating TLR8 agonist (Tsuneyasu Kaisho and Takashi Tanaka, Trends in Immunology, Volume 29, Issue 7, July 2008, […]; Hiroaki Hemmi et al, Nature Immunology 3, 196-200 (2002)).
The ratio of TLR8 agonism activity compared to TLR7 agonism activity was defined as the selectivity index (EC50 (TLR8) value/EC50(TLR7) value) and calculated accordingly.

human TLR7 = human TLR7 (Homo sapiens (Human), UniProt Q9NYK1); assay: HEK-Blue-hTLR7 cells assay (SEAP reporter); format: cell-based; conditions: 20 hrs, read-out: HEK-Blue-hTLR7 (EC50 (μM))
Chain of human TLR7 (Q9NYK1 27-1049): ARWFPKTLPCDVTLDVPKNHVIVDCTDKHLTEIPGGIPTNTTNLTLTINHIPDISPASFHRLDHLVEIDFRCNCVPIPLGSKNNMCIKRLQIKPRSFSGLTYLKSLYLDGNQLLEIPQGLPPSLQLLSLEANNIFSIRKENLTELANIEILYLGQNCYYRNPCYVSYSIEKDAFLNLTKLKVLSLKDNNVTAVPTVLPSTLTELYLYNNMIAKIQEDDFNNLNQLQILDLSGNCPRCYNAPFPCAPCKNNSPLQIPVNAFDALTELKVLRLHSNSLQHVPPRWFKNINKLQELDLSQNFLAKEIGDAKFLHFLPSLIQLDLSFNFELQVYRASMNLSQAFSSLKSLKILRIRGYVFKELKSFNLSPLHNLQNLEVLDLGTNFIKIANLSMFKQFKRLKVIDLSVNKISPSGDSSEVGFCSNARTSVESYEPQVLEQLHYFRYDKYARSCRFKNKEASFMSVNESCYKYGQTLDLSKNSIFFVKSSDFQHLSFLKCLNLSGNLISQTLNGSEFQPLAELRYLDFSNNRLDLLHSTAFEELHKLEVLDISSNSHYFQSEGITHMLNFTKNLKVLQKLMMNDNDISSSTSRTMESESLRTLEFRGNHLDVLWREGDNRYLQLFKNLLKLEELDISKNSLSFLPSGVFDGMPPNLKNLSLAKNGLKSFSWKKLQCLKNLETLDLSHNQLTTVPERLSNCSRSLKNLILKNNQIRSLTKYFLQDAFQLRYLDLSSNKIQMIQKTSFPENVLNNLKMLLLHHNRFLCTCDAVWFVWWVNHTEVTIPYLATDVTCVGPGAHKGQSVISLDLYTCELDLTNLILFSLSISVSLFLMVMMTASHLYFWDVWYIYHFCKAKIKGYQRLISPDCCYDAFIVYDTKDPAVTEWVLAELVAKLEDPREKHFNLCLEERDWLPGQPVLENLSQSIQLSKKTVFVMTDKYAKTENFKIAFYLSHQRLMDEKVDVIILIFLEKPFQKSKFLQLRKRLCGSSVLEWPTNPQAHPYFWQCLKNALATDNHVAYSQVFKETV
Protocol: as §1, with “HEK-Blue-hTLR7” for “HEK-Blue-hTLR8”, “hkb-htlr7,” for “HEK-Blue-htlr8,”, “TLR7” for “TLR8”
as §2, with “HEK-Blue-hTLR7 cells” for “HEK-Blue-hTLR8 cells”, “the HEK-Blue-hTLR-7” for “the HEK-Blue-hTLR8”, “2 hrs” for “2 hours”, “that TLR7” for “that TLR8”, “evaluating TLR7” for “evaluating TLR8”

[3] = Single dose PK after 1 mg/kg intravenous dosing to rat; format: in vivo, Male Wister-Han Rats; conditions: IV 1 mpk; for concentration at 4 h: read-out: Mean plasma concentration
Protocol: The single dose PK in Male Wister-Han Rats was performed to assess pharmacokinetic properties of tested compounds. Two groups of animals were dosed via bolus intravenous (IV) of the respective compound. Blood samples (approximately 20 μL) were collected via Jugular vein or an alternate site at 5 min, 15 min, 30 min, 1 hr, 2 hr, 4 hr, 7 hr and 24 hr post-dose for IV group. Blood samples were placed into tubes containing EDTA-K2 anticoagulant and centrifuged at 5000 rpm for 6 min at 4° C. to separate plasma from the samples. Following centrifugation, the resulting plasma was transferred to clean tubes for bioanalysis on LC/MS/MS. The pharmacokinetic parameters were calculated using non-compartmental module of WinNonlin® Professional 6.2. […] Therefore, compounds of present invention potentially could lead to less dose frequency and lower dose in clinical application.

[4] = HEK-Blue-hTLR8 cells, SEAP reporter, 20 hrs, read-out: HEK Blue hTLR-8 EC50

| Structure (SMILES) | solubility thermodynamic (LYSA solubility) [µg/mL] | EC50 (human TLR8) [µM] | Selective index (human TLR8) | EC50 (human TLR7) [µM] | further results |
| --- | --- | --- | --- | --- | --- |
| CS(=N)(=O)c1nc(N)c2[nH]c(=O)n(Cc3ccccc3)c2n1 (single isomer, unassigned) [Example 1-B, 6-Amino-9-benzyl-2-(methylsulfonimidoyl)-7H-purin-8-one] | 98 (≈ 308 µM) | – | – | – | Human Liver Microsome Clearance [1]: <6.15 mL/min/kg; Ames result [2]: negative |
| CCCS(=N)(=O)c1nc(N)c2[nH]c(=O)n(Cc3ccc(C)cc3)c2n1 (single isomer, unassigned) [Example 29-B, 6-Amino-2-(propylsulfonimidoyl)-9-(p-tolylmethyl)-7H-purin-8-one] | – | – | – | – | Ames result [2]: negative; Safety ratio (hERG IC20/EC50) (hERG channel; hERG IC20/EC50): >546; IC20 (hERG channel; read-out: hERG IC20): > 10 µM; LYSA (LYSA solubility): 11 µg/mL |
| CS(=N)(=O)c1nc(N)c2[nH]c(=O)n(Cc3ccc(Cl)cc3)c2n1 (centres unmarked) [Example 13, 6-Amino-9-[(4-chlorophenyl)methyl]-2-(methylsulfonimidoyl)-7H-purin-8-one] | 10 (≈ 28.3 µM) | 300 | 6977 | 0.043 | – |
| CS(=N)(=O)c1nc(N)c2[nH]c(=O)n(Cc3cccnc3)c2n1 (centres unmarked) [Example 16, 6-Amino-2-(methylsulfonimidoyl)-9-(3-pyridylmethyl)-7H-purin-8-one] | – | > 1000 | >4546 | 0.22 | – |
| CS(=N)(=O)c1nc(N)c2[nH]c(=O)n(Cc3ccncc3)c2n1 (centres unmarked) [Example 20, 6-Amino-2-(methylsulfonimidoyl)-9-(4-pyridylmethyl)-7H-purin-8-one] | – | > 1000 | >3846 | 0.26 | – |
| CCCS(=N)(=O)c1nc(N)c2[nH]c(=O)n(Cc3cnc(C)nc3)c2n1 (centres unmarked) [Example 44, 6-Amino-9-[(2-methylpyrimidin-5-yl)methyl]-2-(propylsulfonimidoyl)-7H-purin-8-one] | 357 (≈ 985 µM) | – | – | 0.136 | Human Liver Microsome Clearance [1]: <6.15 mL/min/kg |
| CCS(=N)(=O)c1nc(N)c2[nH]c(=O)n(Cc3ccc(Cl)cc3)c2n1 (centres unmarked) [Example 70, 6-Amino-9-[(4-chlorophenyl)methyl]-2-(ethylsulfonimidoyl)-7H-purin-8-one] | 7 (≈ 19.1 µM) | 90 | 1579 | 0.057 | – |
| CNC(=O)c1nc(N)c2[nH]c(=O)n(Cc3ccccc3)c2n1 [Example P-5, reference compound] | – | – | – | 3.14 | EC50 (human TLR8; [4]): > 1000 µM |
| CS(=O)(=O)c1nc(N)c2[nH]c(=O)n(Cc3ccccc3)c2n1 [Example S-1, reference compound] | – | – | >2703 | 0.37 | EC50 (human TLR8; [4]): > 1000 µM; AUC0-inf [3]: 0.201 µM·h; CL [3]: 261 mL/min/kg; CO [3]: 534 nM; concentration at 4 h ([3]; 0.083 h): 534 nM; concentration at 4 h ([3]; 0.25 h): 236 nM; concentration at 4 h ([3]; 0.5 h): 125 nM; concentration at 4 h ([3]; 1 h): 38 nM; concentration at 4 h ([3]; 2 h): 9 nM; LYSA (LYSA solubility): 0.5 µg/mL |
